Results published in US8383581B2, “Short-chain peptides as parathyroid hormone (PTH) receptor agonist” (Cadila Healthcare Limited, priority 2009, dated 2013).
Where a SMILES comes first, the peptide text is derived from it. [ ]: non-standard residue; d: D form. ξ: configuration not given here. ξBip(2'-Et-4'-OMe) = CCc1cc(OC)ccc1-c1ccc(CC(N)C(=O)O)cc1; Arg(NO2) = N=C(NCCC[C@H](N)C(=O)O)N[N+](=O)[O-]; ξαMePhe(2,6-F2) = CC(N)(Cc1c(F)cccc1F)C(=O)O; ξαMe(hhPhe) = CC(N)(CCCc1ccccc1)C(=O)O; ξαMePhe(2-F) = CC(N)(Cc1ccccc1F)C(=O)O; ξαMeW = CC(N)(Cc1c[nH]c2ccccc12)C(=O)O; hhPhe = N[C@@H](CCCc1ccccc1)C(=O)O; hArg = N=C(N)NCCCC[C@H](N)C(=O)O; hCit = NC(=O)NCCCC[C@H](N)C(=O)O; ξαMeF = CC(N)(Cc1ccccc1)C(=O)O; NMeV = CN[C@H](C(=O)O)C(C)C; ξαMeNle = CCCCC(C)(N)C(=O)O; ξαMeV = CC(C)C(C)(N)C(=O)O; ξαMeM = CSCCC(C)(N)C(=O)O; Nle = CCCC[C@H](N)C(=O)O; Ac5c = NC1(C(=O)O)CCCC1; Ac3c = NC1(C(=O)O)CC1; Aib = CC(C)(N)C(=O)O

Key:
Format in all cases: in vitro ADME
[1] = Stability of peptides in simulated intestinal fluid (pH 7.5); conditions: pH 7.5; for half-life / half-life (t1/2) in simulated intestinal fluid: simulated gi fluid; for % degradation of peptides in 24 h when incubated with simulated intestinal fluid: 2 μM
In short: (§1)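 Peptides at 2 μM final incubated 0–24 h at 37 °C (50 mM triethanolamine-HCl, pH 7.8) in each matrix, matrix level set to degrade ~50% PTH(1-34) in 1 h; TFA-quenched, C18 HPLC at 206 nm with ESI-MS peak identification; percent degradation from peak areas at each time point.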

[2] = Stability of peptides in simulated gastric fluid (pH 1.5; HCl, NaCl and Pepsin); conditions: pH 1.5; for % degradation of peptides in 24 h when incubated with simulated gastric fluid: 2 μM; for half-life / half-life (t1/2) in simulated gastric fluid: simulated gi fluid
[3] = Stability of peptides in human liver microsomes; conditions: human, microsomes; for % degradation of peptides in 24 h when incubated with liver microsomes: 2 μM, pH 7.8
In short: as §1

[4] = Stability of peptides in human plasma; conditions: human, plasma; for metabolised at 24 h, 2 μM: pH 7.8
In short: as §1

Row | SMILES | half-life [1] [h] | % degradation of peptides in 24 h when incubated with simulated intestinal fluid [1] [%] | % degradation of peptides in 24 h when incubated with simulated gastric fluid [2] [%] | half-life [2] [h] | half-life (t1/2) in liver microsomes [3] | % degradation of peptides in 24 h when incubated with liver microsomes [3] [%] | half-life [4] [h] | metabolised at 24 h, 2 μM [4] [%] | half-life (t1/2) in simulated intestinal fluid [1] | half-life (t1/2) in simulated gastric fluid [2] | half-life [3] [h] | half-life (t1/2) in human plasma [4]
1 | CC[C@H](C)[C@H](NC(=O)[C@H](CCC(=O)O)NC(=O)C(C)(C)NC(=O)[C@@H](NC(=O)C(C)(C)N)C(C)C)C(=O)N[C@@H](CCC(N)=O)C(=O)N[C@@H](CC(C)C)C(=O)NC(C)(CCSC)C(=O)N[C@@H](Cc1c[nH]cn1)C(=O)N[C@@H](CCC(N)=O)C(=O)N[C@@H](CCCCNC(=N)N)C(=O)N[C@@H](C)C(=O)N[C@@H](CCCCNC(=N)N)C(=O)NC(C)(Cc1ccccc1F)C(=O)N[C@@H](CCCc1ccccc1)C(N)=O (stereo partly drawn) [Seq. ID. 930] (H-[Aib]V[Aib]EIQL[ξαMeM]HQ[hArg]A[hArg][ξαMePhe(2-F)][hhPhe]-NH2) | > 24 | 00 | 00 | > 24 | (5) h | 32 | > 24 | 0 |  |  |  | 
2 | CCCC[C@H](NC(=O)C(C)(Cc1c(F)cccc1F)NC(=O)[C@H](CCC(N)=O)NC(=O)[C@@H](NC(=O)[C@H](CCC(=O)O)NC(=O)C(C)(C)NC(=O)[C@@H](NC(=O)C1(N)CCCC1)C(C)C)[C@@H](C)CC)C(=O)N[C@@H](Cc1c[nH]cn1)C(=O)N[C@@H](CCC(N)=O)C(=O)NC(C)(C)C(=O)NC(C)(C)C(=O)NC(C)(C)C(=O)NC(C)(Cc1ccccc1F)C(N)=O (stereo partly drawn) [Seq. ID. 560] (H-[Ac5c]V[Aib]EIQ[ξαMePhe(2,6-F2)][Nle]HQ[Aib][Aib][Aib][ξαMePhe(2-F)]-NH2) |  | 43 | 14 |  |  | 80 | 8 | 78 | (6) h | (8) h | 1 | 
3 | CCCC[C@H](NC(=O)C(C)(Cc1c(F)cccc1F)NC(=O)[C@H](CCC(N)=O)NC(=O)[C@@H](NC(=O)[C@H](CCC(=O)O)NC(=O)C(C)(C)NC(=O)[C@@H](NC(=O)C1(N)CCCC1)C(C)C)[C@@H](C)CC)C(=O)N[C@@H](Cc1c[nH]cn1)C(=O)N[C@@H](CCC(N)=O)C(=O)N[C@@H](CCCCNC(=N)N)C(=O)NC(C)(C)C(=O)NC(C)(Cc1c(F)cccc1F)C(=O)NC(C)(Cc1c(F)cccc1F)C(N)=O (stereo partly drawn) [Seq. ID. 240] (H-[Ac5c]V[Aib]EIQ[ξαMePhe(2,6-F2)][Nle]HQ[hArg][Aib][ξαMePhe(2,6-F2)][ξαMePhe(2,6-F2)]-NH2) |  | 40 | 14 |  |  | 78 | 8 | 71 | (6) h | (8) h | 1 | 
4 | CC[C@H](C)[C@H](NC(=O)[C@H](CCC(=O)O)NC(=O)C(C)(C)NC(=O)[C@@H](NC(=O)C1(NC(=O)[C@@H](NC)C(C)C)CCCC1)C(C)C)C(=O)N[C@@H](CCC(N)=O)C(=O)N[C@@H](CC(C)C)C(=O)NC(C)(CCSC)C(=O)N[C@@H](Cc1c[nH]cn1)C(=O)N[C@@H](CCC(N)=O)C(=O)N[C@@H](CCCCNC(=N)N)C(=O)N[C@@H](C)C(=O)N[C@@H](CCCCNC(=N)N)C(=O)NC(C)(Cc1ccccc1F)C(=O)NC(C)(CCCc1ccccc1)C(N)=O (stereo partly drawn) [Seq. ID. 940] (H-[NMeV][Ac5c]V[Aib]EIQL[ξαMeM]HQ[hArg]A[hArg][ξαMePhe(2-F)][ξαMe(hhPhe)]-NH2) | > 24 | 00 | 00 | > 24 | (5) h | 32 | > 24 | 0 |  |  |  | 
5 | CCCC[C@H](NC(=O)[C@H](CC(C)C)NC(=O)[C@H](CCC(N)=O)NC(=O)[C@@H](NC(=O)[C@H](CCC(=O)O)NC(=O)C(C)(C)NC(=O)[C@@H](NC(=O)C(C)(C)N)C(C)C)[C@@H](C)CC)C(=O)N[C@@H](Cc1c[nH]cn1)C(=O)N[C@@H](CCC(N)=O)C(=O)N[C@@H](CCCCNC(N)=O)C(=O)NC(C)(C)C(=O)NC(C)(C)C(=O)NC(Cc1ccc(-c2ccc(OC)cc2CC)cc1)C(=O)N[C@@H](CCCc1ccccc1)C(N)=O (stereo partly drawn) [Seq. ID. 790] (H-[Aib]V[Aib]EIQL[Nle]HQ[hCit][Aib][Aib][ξBip(2'-Et-4'-OMe)][hhPhe]-NH2) | > 24 | 00 | 43 | 4 |  | 84 | > 24 | 0 |  |  | 2 | 
6 | CC[C@H](C)[C@H](NC(=O)[C@H](CCC(=O)O)NC(=O)C(C)(C)NC(=O)[C@@H](NC(=O)C1(N)CC1)C(C)C)C(=O)N[C@@H](CCC(N)=O)C(=O)N[C@@H](CC(C)C)C(=O)N[C@@H](CCSC)C(=O)N[C@@H](Cc1c[nH]cn1)C(=O)N[C@@H](CCC(N)=O)C(=O)N[C@@H](CCCCNC(=N)N)C(=O)NC(C)(C)C(=O)N[C@@H](CCCCN)C(=O)NC(C)(Cc1ccccc1)C(N)=O (stereo partly drawn) [Seq. ID. 14] (H-[Ac3c]V[Aib]EIQLMHQ[hArg][Aib]K[ξαMeF]-NH2) |  | 43 | 11 | 7 |  | 77 | 8 | 69 | (6) h |  | 2 | 
7 | CCCC[C@H](NC(=O)C(C)(Cc1c(F)cccc1F)NC(=O)[C@H](CCC(N)=O)NC(=O)[C@@H](NC(=O)[C@H](CCC(=O)O)NC(=O)C(C)(C)NC(=O)[C@@H](NC(=O)C(C)(C)N)C(C)C)[C@@H](C)CC)C(=O)N[C@@H](Cc1c[nH]cn1)C(=O)N[C@@H](CCC(N)=O)C(=O)NC(C)(Cc1c(F)cccc1F)C(=O)N[C@@H](C)C(=O)N[C@@H](CCCNC(=N)N[N+](=O)[O-])C(=O)NC(C)(Cc1ccccc1F)C(N)=O (stereo partly drawn) [Seq. ID. 525] (H-[Aib]V[Aib]EIQ[ξαMePhe(2,6-F2)][Nle]HQ[ξαMePhe(2,6-F2)]A[Arg(NO2)][ξαMePhe(2-F)]-NH2) |  | 55 | 12 |  |  | 79 | 8 | 78 | (6) h | (8) h | 1 | 
8 | CCCCC(C)(NC(=O)[C@H](CC(C)C)NC(=O)[C@H](CCC(N)=O)NC(=O)[C@@H](NC(=O)[C@H](CCC(=O)O)NC(=O)C(C)(C)NC(=O)[C@@H](NC(=O)C1(NC(=O)C(C)(N)C(C)C)CCCC1)C(C)C)[C@@H](C)CC)C(=O)N[C@@H](Cc1c[nH]cn1)C(=O)N[C@@H](CCC(N)=O)C(=O)N[C@@H](CCCCNC(=N)N)C(=O)N[C@@H](C)C(=O)N[C@@H](CCCCNC(=N)N)C(=O)NC(C)(Cc1ccccc1F)C(=O)NC(C)(CCCc1ccccc1)C(N)=O (stereo partly drawn) [Seq. ID. 939] (H-[ξαMeV][Ac5c]V[Aib]EIQL[ξαMeNle]HQ[hArg]A[hArg][ξαMePhe(2-F)][ξαMe(hhPhe)]-NH2) | > 22 | 09 | 08 | > 22 | (5) h | 33 | > 20 | 10 |  |  |  | 
9 | CCCCC(C)(NC(=O)[C@H](CC(C)C)NC(=O)[C@H](CCC(N)=O)NC(=O)[C@@H](NC(=O)[C@H](CCC(=O)O)NC(=O)C(C)(C)NC(=O)[C@@H](NC(=O)C(C)(C)N)C(C)C)[C@@H](C)CC)C(=O)N[C@@H](Cc1c[nH]cn1)C(=O)N[C@@H](CCC(N)=O)C(=O)N[C@@H](CCCCNC(=N)N)C(=O)N[C@@H](C)C(=O)N[C@@H](CCCCNC(=N)N)C(=O)NC(C)(Cc1c[nH]c2ccccc12)C(=O)NC(C)(CCCc1ccccc1)C(N)=O (stereo partly drawn) [Seq. ID. 949] (H-[Aib]V[Aib]EIQL[ξαMeNle]HQ[hArg]A[hArg][ξαMeW][ξαMe(hhPhe)]-NH2) | 0.5 | 100 | 100 | 0.5 |  | 100 |  | 70 |  |  | 0.5 | (9) h
